Source: patent publication US20240199611A1, “ANTIBACTERIAL COMPOUNDS” (JANSSEN SCIENCES IRELAND UNLIMITED COMPANY, priority 2021, published 2024)
pIC50: −log10 of the molar value. Converted amounts (≈) assume the structure as drawn.

Legend:
Ca Ch = settings: read-out: CVS Ca Ch IC50
Na Ch = assay: CVS Na Ch
[1] = in vivo
[2] = Mitochondrial toxicity (Glu/Gal) assay; type: cell-based
Excerpt: (§1) The compounds of the invention/examples may have advantages associated with in vitro potency, kill kinetics (i.e. bactericidal effect) in vitro, PK properties, food effect, safety/toxicity (including liver toxicity, coagulation, 5-LO oxygenase), metabolic stability, Ames II negativity, MNT negativity, aqueous based solubility (and ability to formulate) and/or cardiovascular effect e.g. on animals (e.g. anesthetized guinea pig). The data below that was generated/calculated may be obtained using standard methods/assays, for instance that are available in the literature or which may be performed by a supplier (e.g. Microsomal Stability Assay—Cyprotex, Mitochondrial toxicity (Glu/Gal) assay—Cyprotex, as well as literature CYP cocktail inhibition assays). In some instances, GSH was measured (reactive metabolites, glucuronidation) to observe if a dihydrodiol is observed by LCMS (fragmentation ions), which would correspond to a dihydroxylation on the core heterocycle.

Cyp 3A4 = Cyp 3A4 induction; settings: at 1 μM
AMES II = type: cell-based
Excerpt: as §1

Kinase panel = assay: Kinase panel; type: biochemical
M. tuberculosis H37Rv = settings: strain M. tuberculosis H37Rv, inside macrophages; cited from earlier work
[3] = type: physicochemical; settings: 30 μM; for chemical stability (% by LCMS), DMSO: 0 h; for chemical stability (% by LCMS), ACN/H2O / chemical stability (% by LCMS), ACN/0.1N HCl: 48 h; for chemical stability (% by LCMS), ACN/0.1N HCl: pH 1.6
Method: Chemical Stability Testing
Preliminary Protocol • Add 3 μl of a 10 mM DMSO stock solution to 1 ml of the following solvents in a 1.5 ml HPLC vial. • DMSO (reference solution) • H2O/Acetonitril 1/1 (assay solution) • 0.1N HCl/Acetonitril 1/1 (assay solution) • Mix well, […] LCMS • Compare the chromatograms of the two assay solutions with the reference solution and report the additional peaks as degradation peaks

[4] = test system: Mycobacterium tuberculosis strain EH4.0 expressing green-fluorescent protein (GFP); assay: microbe, parasite or virus in culture; type: cell-based; settings: Test 1 (and/or Test 2), read-out: pIC50 (converted)
[5] = GSH measurement (reactive metabolites); type: in vitro ADME
Excerpt: as §1

Row | SMILES | chemical stability (% by LCMS), DMSO [3] | chemical stability (% by LCMS), ACN/H2O [3] | chemical stability (% by LCMS), ACN/0.1N HCl [3] | IC50 [4] | further results
1 | CCc1nc2ccc(Cl)cn2c1C(=O)NCc1ccc(N2CCN(S(C)(=O)=O)C=N2)cc1 [Compound 20] | – | – | – | – | melting point: 209.36 °C; pIC50 (Ca Ch): < 5.00
2 | CCc1nc2ccc(Cl)cn2c1C(=O)NCc1ccc(N2CCN(S(=O)(=O)C(F)(F)F)C=N2)cc1F [Compound 16] | – | – | – | – | melting point: 158.1 °C; pIC50 (Na Ch): < 5.00
3 | CCc1nc2ncc(Cl)cn2c1C(=O)NCc1ccc(N2CCN(S(=O)(=O)C(F)(F)F)C=N2)cc1 [Compound 13] | – | – | – | – | melting point: 215.87 °C; pIC50 (Na Ch): < 5.00
4 | CCc1nc2ccc(Cl)cn2c1C(=O)NCc1ccc(N2CCN(S(=O)(=O)C(F)(F)F)C=N2)cc1 [Compound 1] | – | – | – | – | melting point: 183.46 °C; pIC50 (Ca Ch): < 5.00; bioavailability [1]: good bioavailability; Glu/Gal assay ratio (mitotoxicity) [2]: < 3
5 | CCc1nc2ccc(Cl)cn2c1C(=O)NCc1ccc(N2CCN(S(=O)(=O)C(F)(F)F)C=N2)c(F)c1 [Compound 9] | – | – | – | – | pIC50 (Na Ch): < 5.00
6 | CCc1nc2ncc(C)cn2c1C(=O)NCc1ccc(N2CCN(S(=O)(=O)C(F)(F)F)C=N2)c(F)c1 [Compound 161] | – | – | – | – | Cyp 3A4 induction (% control) (Cyp 3A4): 3.0 % control; pIC50 (Ca Ch): < 5.00; AMES II (AMES II): negative; bioavailability [1]: good bioavailaibility; Kinase panel (Kinase panel): negative; Glu/Gal assay ratio (mitotoxicity) [2]: < 3
7 | CCc1nc2ccc(Cl)cn2c1C(=O)NCc1ccc(N2CCC(c3ccc(OC(F)(F)F)cc3)CC2)cc1 [Compound Q203] | – | – | – | – | MIC50 (M. tuberculosis H37Rv): 0.28 nM (≈ 0.156 ng/mL)
8 | CCc1nc2ccc(C)cn2c1C(=O)NCc1ccc(N2CCN(S(=O)(=O)C(F)(F)F)C(C(=O)OC)=N2)cc1 [Compound 258] | 99% | 99% | 100% | 6.17 nM | –
9 | Cc1ccc2nc(C(F)F)c(C(=O)NCc3ccc(N4CCN(S(=O)(=O)C(F)(F)F)C(C(C)C)=N4)c(F)c3)n2c1 [Compound 240] | 100% | 100% | 100% | 0.603 nM | –
10 | CCc1nc2ccc(Cl)cn2c1C(=O)NCc1ccc(N2CCN(S(=O)(=O)C(F)(F)F)C(OC)=N2)cc1 [Compound 6] | – | – | – | – | pIC50 (Na Ch): < 5.00; Glu/Gal assay ratio (mitotoxicity) [2]: < 3
11 | CC1=NN(c2ccc(CNC(=O)c3c(C(F)(F)F)nc4ccccn34)cc2F)CCN1S(=O)(=O)C(F)(F)F [Compound 252] | 99% | 99% | 99% | 1.2 nM | –
12 | CCc1nc2ncc(C)cn2c1C(=O)NCc1cnc(N2CCN(S(=O)(=O)C(F)(F)F)C(C)=N2)c(F)c1 [Compound 255] | 100% | 100% | 98% | 6.17 nM | –
13 | CCc1nc2ncc(C)cn2c1C(=O)NCc1ccc(N2CCN(S(=O)(=O)C(F)(F)F)C(C(C)C)=N2)c(F)c1 [Compound 248] | 92% | 100% | 100% | 0.224 nM | –
14 | CCc1nc2ccc(C#N)cn2c1C(=O)NCc1ccc(N2CCN(S(=O)(=O)C(F)(F)F)C(OC)=N2)c(F)c1 [Compound 73] | – | – | – | – | melting point: 212.08 °C; GSH / reactive metabolites [5]: no measure of GSH; pIC50 (Na Ch): < 5.00
15 | CCc1nc2c(F)cc(Cl)cn2c1C(=O)NCc1ccc(N2CCN(S(=O)(=O)C(F)(F)F)C(C3CC3)=N2)c(F)c1 [Compound 231] | 98% | 98% | 98% | 0.891 nM | –
16 | O=C(NCc1ccc(N2CCN(S(=O)(=O)C(F)(F)F)C=N2)c(F)c1)c1c(C(F)(F)F)nc2ccccn12 [Compound 152] | – | – | – | – | GSH / reactive metabolites [5]: formation of reactive metabolites was blocked; bioavailability [1]: good bioavailaibility; Glu/Gal assay ratio (mitotoxicity) [2]: < 3
17 | CC1=NN(c2ccc(CNC(=O)c3c(C(F)(F)F)nc4ncc(C)cn34)cc2F)CCN1S(=O)(=O)C(F)(F)F [Compound 257] | 99% | 99% | 99% | 6.03 nM | –
